{
  "source": "paper PMC7932521",
  "about": "“2-aminobenzimidazoles for leishmaniasis: From initial hit discovery to in vivo profiling” (PLoS Neglected Tropical Diseases, 2021)",
  "key": {"[1]": {"system": "panel of VL and CL strains (intracellular amastigotes)", "assay": "Panel of VL and CL strains", "format": "cell-based, Leishmania spp.", "conditions": "Leishmania, L. major JISH118 and L. braziliensis H3227 excepted, read-out: IC50 values across panel of VL and CL strains", "experimental": "The only two clear exceptions were L. major (MHOM/SA/85/JISH118) and L. braziliensis (MHOM/BR/94/H3227), where a potency drop was evident (see S1 Data for the complete dataset).\n(§1) For the antileishmania in vitro assays, 3×10^4 PMM/well were seeded in 96-well plates. After 24h, 5×10^5 amastigotes/well were added and incubated for 2h at 37°C. Next, the compounds in 4-fold serial dilutions were added and the plates were further incubated for 5 days (37°C, 5% CO2). Parasite burdens were assessed using an inverted microscope after Giemsa staining. The results were expressed as percent reduction in parasite burdens compared to negative control wells (100% growth) and IC50 values were determined. Values represent the geometric mean of at least two independent experiments. Miltefosine was used as the positive control in all plates."}, "[2]": {"assay": "Mouse single-dose pharmacokinetics", "format": "in vivo", "conditions": "female, BALB/c, plasma, single oral dose 10 mg/kg"}, "Mouse 5-day tolerability": {"assay": "Mouse 5-day tolerability", "format": "in vivo", "conditions": "healthy mice", "experimental": "Compounds were administered to groups (n = 3) of female BALB/c mice via oral gavage in a 5-day exploratory repeat-dose study at doses of 25, 50 and 100 mg/kg/day, employing a solution/suspension vehicle comprising 10% ethanol, 40% PEG400 and 0.4% Tween80 in saline buffer (pH adjusted to 9). Repeat-dose toxicity was evaluated based on mortality, clinical observations, body weight and macroscopic organ pathologies."}, "[3]": {"system": "L. infantum MHOM/ES/2016/LLM-2346", "assay": "VL/CL panel, intracellular amastigotes", "format": "cell-based", "conditions": "Leishmania infantum; average; read-out: IC-50 L. infantum MHOM/ES/2016/LLM-2346", "experimental": "as §1"}, "[4]": {"system": "L. panamensis MHOM/PA/71/LS94", "assay": "VL/CL panel, intracellular amastigotes", "format": "cell-based", "conditions": "Leishmania panamensis; average; read-out: IC-50 L. panamensis MHOM/PA/71/LS94", "experimental": "as §1"}, "[5]": {"system": "L. donovani MHOM/ET/2007/LLM-1600", "assay": "VL/CL panel, intracellular amastigotes", "format": "cell-based", "conditions": "Leishmania donovani; average; read-out: IC-50 L. donovani MHOM/ET/2007/LLM-1600", "experimental": "as §1"}, "[6]": {"system": "L. major MHOM/IL/81/Friedlin", "assay": "VL/CL panel, intracellular amastigotes", "format": "cell-based", "conditions": "Leishmania major; average; read-out: IC-50 L. major MHOM/IL/81/Friedlin", "experimental": "as §1"}, "[7]": {"system": "L. infantum MHOM/FR/96/LEM3323-cl4", "assay": "VL/CL panel, intracellular amastigotes", "format": "cell-based", "conditions": "Leishmania infantum; average; read-out: IC-50 L. infantum MHOM/FR/96/LEM3323-cl4", "experimental": "as §1"}, "[8]": {"system": "L. braziliensis MHOM/BR/94/H3227", "assay": "VL/CL panel, intracellular amastigotes", "format": "cell-based", "conditions": "Leishmania braziliensis; average; read-out: IC-50 L. braziliensis MHOM/BR/94/H3227", "experimental": "as §1"}, "[9]": {"system": "L. infantum MHOM/BR/2007/WC (L3015)", "assay": "VL/CL panel, intracellular amastigotes", "format": "cell-based", "conditions": "Leishmania infantum; average; read-out: IC-50 L. infantum MHOM/BR/2007/WC (L3015)", "experimental": "as §1"}, "[10]": {"system": "L. donovani MHOM/NP/03/BPK275/0-cl18", "assay": "VL/CL panel, intracellular amastigotes", "format": "cell-based", "conditions": "Leishmania donovani; average; read-out: IC-50 L. donovani MHOM/NP/03/BPK275/0-cl18", "experimental": "as §1"}, "[11]": {"system": "L. donovani MHOM/ NP/2003/ BPK282/0-cl4", "assay": "VL/CL panel, intracellular amastigotes", "format": "cell-based", "conditions": "Leishmania donovani; average; read-out: IC-50 L. donovani MHOM/ NP/2003/ BPK282/0-cl4", "experimental": "as §1"}},
  "data": [
    {"compound": "Cn1nccc1C(=O)Nc1nc2ccc(C#N)cc2n1CC(C)(C)C", "note": "[Compound 29, O=C(Nc1n(CC(C)(C)C)c(c2n1)cc(C#N)cc2)c3n(C)ncc3]", "values": [
      {"measurement": "IC50", "setting": "[1]", "value": "110 to 5900", "unit": "nM"},
      {"measurement": "AUC(0-t)", "setting": "[2]", "value": 8160, "unit": "ng·h/mL"},
      {"measurement": "Cmax", "setting": "[2]", "value": 1000, "unit": "ng/mL"},
      {"measurement": "bioavailability", "setting": "[2]", "value": 72, "unit": "%"},
      {"measurement": "half-life", "setting": "[2]", "value": 7.9, "unit": "h"},
      {"measurement": "5-day tolerability", "setting": "Mouse 5-day tolerability; oral 25 mg/kg/day", "value": "well tolerated"},
      {"measurement": "5-day tolerability", "setting": "Mouse 5-day tolerability; oral 50 mg/kg/day", "value": "clinical signs from day 3 of treatment"},
      {"measurement": "5-day tolerability", "setting": "Mouse 5-day tolerability; oral top dose (100 mg/kg/day)", "value": "body weight reduction and severe toxic signs, including mortality"},
      {"measurement": "IC50", "setting": "[3]", "value": 3170, "unit": "nM"},
      {"measurement": "IC50", "setting": "[4]", "value": 630, "unit": "nM"},
      {"measurement": "IC50", "setting": "[5]", "value": 4040, "unit": "nM"},
      {"measurement": "IC50", "setting": "[6]", "value": 1710, "unit": "nM"},
      {"measurement": "IC50", "setting": "[7]", "value": 2810, "unit": "nM"},
      {"measurement": "IC50", "setting": "[8]", "value": 24800, "unit": "nM"},
      {"measurement": "IC50", "setting": "[9]", "value": 2680, "unit": "nM"},
      {"measurement": "IC50", "setting": "[10]", "value": 1020, "unit": "nM"},
      {"measurement": "IC50", "setting": "[11]", "value": 300, "unit": "nM"}
    ]},
    {"compound": "Cn1nc(C(F)(F)F)cc1C(=O)Nc1nc2ccc(C#N)cc2n1CC(F)(F)F", "note": "[Compound 39, O=C(c1cc(C(F)(F)F)nn1C)Nc2nc(ccc(C#N)c3)c3n2CC(F)(F)F]", "values": [
      {"measurement": "IC50", "setting": "[1]", "value": "110 to 5900", "unit": "nM"},
      {"measurement": "5-day tolerability", "setting": "Mouse 5-day tolerability; oral 25 mg/kg/day", "value": "well tolerated"},
      {"measurement": "5-day tolerability", "setting": "Mouse 5-day tolerability; oral 50 mg/kg/day", "value": "clinical signs from day 3 of treatment"},
      {"measurement": "5-day tolerability", "setting": "Mouse 5-day tolerability; oral top dose (100 mg/kg/day)", "value": "body weight reduction and severe toxic signs, including mortality"},
      {"measurement": "IC50", "setting": "[3]", "value": 4650, "unit": "nM"},
      {"measurement": "IC50", "setting": "[4]", "value": 1220, "unit": "nM"},
      {"measurement": "IC50", "setting": "[5]", "value": 1610, "unit": "nM"},
      {"measurement": "IC50", "setting": "[6]", "value": 3040, "unit": "nM"},
      {"measurement": "IC50", "setting": "[7]", "value": 3010, "unit": "nM"},
      {"measurement": "IC50", "setting": "[9]", "value": 3640, "unit": "nM"},
      {"measurement": "IC50", "setting": "[10]", "value": 110, "unit": "nM"},
      {"measurement": "IC50", "setting": "[11]", "value": 100, "unit": "nM"}
    ]}
  ]
}
